For test [1], the system named is MDA-MB-231 derived mammary tumors. Nature of the test: in vivo invasion assay, MDA-MB-231 derived mammary tumors. The arrangement: species or system human tumor xenograft in SCID mice tumor xenograft in SCID mice. The conditions noted are these: MDA-MB-231 tumors in mammary fat pads of SCID mice; FIG. 1C. The text has this: Therefore, an in vivo invasion assay was created in which three needles (microneedles ˜100 um in diameter) containing matrigel and various growth factors are placed independently with microscopic precision, using a specially designed micromanipulator guided device, into the primary tumor for chemotaxis-based cell collection in vivo [3]. One needle contains control conditions (usually no ligand or an inhibitor), and the other two are identical. […] Fetal serum was also sufficient but this required signaling by the EGF receptor again implicating the EGF receptor. Furthermore, CSF-1 was also sufficient for cell collection. […]
Mammary tumors derived by injecting the human cell line MDA-MB-231 into a mammary fat pad of mice were used in the in vivo invasion assay. […] The involvement of EGF and CSF1 in carcinoma cell invasion has been analyzed from primary breast tumors derived from the injection of MDA-MB-231 cells into the mammary fat pads of SCID mice. […]

Test [2] deals with Human lung tumors heterotransplanted into nude mice. Nature of the test: in vivo invasion assay, chemotaxis-based cell collection into needles, human lung tumor heterotransplants. The conditions noted are these: needles containing 50 nM Heregulin; first mouse to mouse transplant. The text has this: Therefore, an in vivo invasion assay was created in which three needles (microneedles ˜100 um in diameter) containing matrigel and various growth factors are placed independently with microscopic precision, using a specially designed micromanipulator guided device, into the primary tumor for chemotaxis-based cell collection in vivo [3]. One needle contains control conditions (usually no ligand or an inhibitor), and the other two are identical. […] Fetal serum was also sufficient but this required signaling by the EGF receptor again implicating the EGF receptor. Furthermore, CSF-1 was also sufficient for cell collection. […] Migration and collection was directly correlated with macrophage density in the mammary gland, stage of progression to malignancy (only background levels of cells, <200 cells, were collected from normal mammary glands and adenoma stage tumors compared with carcinoma stage tumors, ˜1000 cells) and the presence of CSF1 in the tumor was required for cell collection as shown using mouse models with either decreased (op/op) or increased (tet on CSF-1) CSF-1 expression that regulates macrophage recruitment to the mammary gland and metastasis. […] Furthermore, the motility of tumor cells and intravasation occurs preferentially in association with macrophages. […]

For `COc1cc2ncnc(Nc3ccc(F)c(Cl)c3)c2cc1OCCCN1CCOCC1` [Iressa], in test [1], the “CSF1-mediated collection of invasive cells (tumor cell and macrophage invasion)” value is reported as “inhibited”; the “EGF-mediated collection of invasive cells (tumor cell and macrophage invasion)” value was “inhibited”.

Consider Heregulin [reference compound], for which the “fold more cells collected in needles as compared to needles with buffer alone” value in test [2] turned out to be 2 fold.

The record behind these values is US20120322685A1, “DEVICE FOR COLLECTING AND ANALYZING MIGRATORY TUMOR CELLS” (priority 2010, published 2012).
